# Data from ChEMBL document CHEMBL3992552, “Mechanisms of action and structure-activity relationships of cytotoxic flavokawain derivatives” (Bioorg Med Chem, 2017).
# Calls of active or inactive are those of the source. The calls are words filed in the database; no cut-off is given here.
# Experiments:
# MCF7 [1] = assay: Induction of apoptosis in human MCF7 cells harboring wild-type p53 assessed as increase in early apoptosis at 2 times IC50 after 24 hrs by YoPro/propidium iodide/Hoechst staining based assay; type: functional, cell-based
# HaCaT [2] = assay: Cell cycle arrest in human HaCaT cells harboring […] p53 assessed as mitotic index at 10 uM measured after 48 hrs by Hoechst staining based fluorescence assay (reference value: 2.6); type: functional
# NCI-H727 [3] = assay: Cytotoxicity against human NCI-H727 cells assessed as cell survival at 50 uM after 48 hrs by Hoechst 33342 staining based assay relative to control; type: functional; conditions: NCI-H727, 48 h, read-out: Survival
# MCF7 [4] = assay: Induction of apoptosis in human MCF7 cells harboring wild-type p53 assessed as upregulation of cyclinB1 measured after 18 hrs by Hoechst staining based assay; type: functional, cell-based
# PC-3 [5] = assay: Induction of apoptosis in human PC3 cells harboring p53 mutant assessed as increase in late apoptosis at 2 times IC50 after 48 hrs by YoPro/propidium iodide/Hoechst staining based assay; type: functional, cell-based
# [6] = Cytotoxicity against human fibroblasts assessed as cell survival at 50 uM after 48 hrs by Hoechst 33342 staining based assay relative to control; set-up: species or system Fibroblast; conditions: read-out: Survival
# MDA-MB-231 [7] = assay: Cell cycle arrest in human MDA-MB-231 cells assessed as accumulation at M phase by Hoechst staining based fluorescence assay; type: functional
# Caco-2 [8] = assay: Cell cycle arrest in human Caco2 cells assessed as mitotic index at 25 uM measured after 48 hrs by Hoechst staining based fluorescence assay (reference value: 3.6); type: functional
# HaCaT [9] = assay: Cell cycle arrest in human HaCaT cells harboring […] p53 assessed as mitotic index at 25 uM measured after 48 hrs by Hoechst staining based fluorescence assay (reference value: 2.6); type: functional
# [10] = Selectivity index, ratio of IC50 for human fibroblasts to IC50 for human HCT116 cells
# PC-3 [11] = assay: Cell cycle arrest in human PC3 cells harboring p53 mutant assessed as accumulation at S phase at 10 uM measured after 48 hrs by Hoechst/BrdU staining based fluorescence assay (reference value: 40.8%); type: functional
# MDA-MB-231 [12] = assay: Cytotoxicity against human MDA-MB-231 cells assessed as cell viability after 48 hrs by Hoechst 33342 staining based assay; type: functional; conditions: MDA-MB-231, 48 h
# [13] = Selectivity index, ratio of IC50 for human fibroblasts to IC50 for human MCF7 cells
# HCT-116 [14] = assay: Induction of apoptosis in human HCT116 cells harboring wild-type p53 assessed as increase in cleaved caspase3 at 2 times IC50 after 48 hrs by Hoechst staining based assay; type: functional, cell-based
# NCI-H727 [15] = assay: Cell cycle arrest in human NCI-H727 cells harboring p53 mutant assessed as accumulation at S phase at 25 uM measured after 48 hrs by Hoechst/BrdU staining based fluorescence assay (reference value: 40.3%); type: functional
# HCT-116 [16] = assay: Induction of apoptosis in human HCT116 cells harboring wild-type p53 assessed as increase in late apoptosis at 2 times IC50 after 48 hrs by YoPro/propidium iodide/Hoechst staining based assay; type: functional, cell-based
# HCT-116 [17] = assay: Cell cycle arrest in human HCT116 cells harboring wild-type p53 assessed as mitotic index at 10 uM measured after 48 hrs by Hoechst staining based fluorescence assay (reference value: 2.3); type: functional
# MDA-MB-231 [18] = assay: Cell cycle arrest in human MDA-MB-231 cells harboring p53 mutant assessed as accumulation at S phase at 25 uM measured after 48 hrs by Hoechst/BrdU staining based fluorescence assay (reference value: 42.2%); type: functional
# Caco-2 [19] = assay: Cell cycle arrest in human Caco2 cells assessed as accumulation at S phase at 10 uM measured after 48 hrs by Hoechst/BrdU staining based fluorescence assay (reference value: […]); type: functional
# HaCaT [20] = assay: Cell cycle arrest in human HaCaT cells assessed as accumulation at M phase by Hoechst staining based fluorescence assay; type: functional
# MDA-MB-231 [21] = assay: Cell cycle arrest in human MDA-MB-231 cells harboring p53 mutant assessed as accumulation at S phase at 10 uM measured after 48 hrs by Hoechst/BrdU staining based fluorescence assay (reference value: 42.2%); type: functional
# HCT-116 [22] = assay: Cell cycle arrest in human HCT116 cells harboring wild-type p53 assessed as accumulation at S phase at 10 uM measured after 48 hrs by Hoechst/BrdU staining based fluorescence assay (reference value: 68.4%); type: functional
# MCF7 [23] = assay: Cytotoxicity against human MCF7 assessed as cell viability after 48 hrs by Hoechst 33342 staining based assay; type: functional; conditions: MCF7, 48 h
# NCI-H727 [24] = assay: Cell cycle arrest in human NCI-H727 cells harboring p53 mutant assessed as accumulation at S phase at 10 uM measured after 48 hrs by Hoechst/BrdU staining based fluorescence assay (reference value: 40.3%); type: functional
# RL = assay: Cytotoxicity against human RL assessed as cell viability after 48 hrs by Hoechst 33342 staining based assay; type: functional
# MDA-MB-231 [25] = assay: Cell cycle arrest in human MDA-MB-231 cells harboring p53 mutant assessed as mitotic index at 25 uM measured after 48 hrs by Hoechst staining based fluorescence assay (reference value: 2.1); type: functional
# MDA-MB-231 [26] = assay: Induction of apoptosis in human MDA-MB-231 cells harboring p53 mutant assessed as increase in early apoptosis at 2 times IC50 after 24 hrs by YoPro/propidium iodide/Hoechst staining based assay; type: functional, cell-based
# MCF7 [27] = assay: Induction of apoptosis in human MCF7 cells harboring wild-type p53 assessed as upregulation of p21 measured after 48 hrs by Hoechst staining based fluorescence assay; type: functional, cell-based
# HCT-116 [28] = assay: Induction of apoptosis in human HCT116 cells harboring wild-type p53 assessed as upregulation of p21 measured after 48 hrs by Hoechst staining based fluorescence assay; type: functional, cell-based
# HCT-116 [29] = assay: Cell cycle arrest in human HCT116 cells harboring wild-type p53 assessed as mitotic index at 25 uM measured after 48 hrs by Hoechst staining based fluorescence assay (reference value: 2.3); type: functional
# HCT-116 [30] = assay: Cell cycle arrest in human HCT116 cells harboring wild-type p53 assessed as accumulation at S phase at 25 uM measured after 48 hrs by Hoechst/BrdU staining based fluorescence assay (reference value: 68.4%); type: functional
# Huh-7 = assay: Cell cycle arrest in human HuH7 cells assessed as accumulation at S phase at 25 uM measured after 48 hrs by Hoechst/BrdU staining based fluorescence assay (reference value: 44%); type: functional
# HCT-116 [31] = assay: Induction of apoptosis in human HCT116 cells harboring wild-type p53 assessed as increase in early apoptosis at 2 times IC50 after 48 hrs by YoPro/propidium iodide/Hoechst staining based assay; type: functional, cell-based
# HaCaT [32] = assay: Cytotoxicity against human HaCaT cells assessed as cell survival at 50 uM after 48 hrs by Hoechst 33342 staining based assay relative to control; type: functional; conditions: read-out: Survival
# PC-3 [33] = assay: Induction of apoptosis in human PC3 cells harboring p53 mutant assessed as increase in early apoptosis at 2 times IC50 after 48 hrs by YoPro/propidium iodide/Hoechst staining based assay; type: functional, cell-based
# PC-3 [34] = assay: Cell cycle arrest in human PC3 cells assessed as accumulation at M phase by Hoechst staining based fluorescence assay; type: functional
# NCI-H727 [35] = assay: Cell cycle arrest in human NCI-H727 cells harboring p53 mutant assessed as mitotic index at 25 uM measured after 48 hrs by Hoechst staining based fluorescence assay (reference value: 1.1); type: functional
SMILES,Activity (MCF7 [1]),Activity_index (HaCaT [2]),viability at 50 µM (NCI-H727 [3]),Activity (MCF7 [4]),Activity (PC-3 [5]),"viability at 48 h, 50 µM [6]",Activity (MDA-MB-231 [7]),Activity_index (Caco-2 [8]),Activity_index (HaCaT [9]),Ratio IC50 [10],Activity (PC-3 [11]),IC50 (MDA-MB-231 [12]),Ratio IC50 [13],Activity (HCT-116 [14]),Activity (NCI-H727 [15]),Activity (HCT-116 [16]),Activity_index (HCT-116 [17]),Activity (MDA-MB-231 [18]),Activity (Caco-2 [19]),Activity (HaCaT [20]),also measured
COc1cc(OC)c(C(=O)/C=C/c2ccccc2)c(OC)c1,Active,18.3,1%,Active,Active,74%,Active,13,0.1,>7.2,24%,12.9 µM,>5.3,Active,4.5%,Active,2,23%,38%,Active,Activity (MDA-MB-231 [21]): 37%; Activity (HCT-116 [22]): 19%; IC50 (MCF7 [23]): 9.4 µM; Activity (NCI-H727 [24]): 34%; IC50 (RL): 6.9 µM; Activity_index (MDA-MB-231 [25]): 13.2; Activity (MDA-MB-231 [26]): Active; Activity (MCF7 [27]): Active; Activity (HCT-116 [28]): Active; Activity_index (HCT-116 [29]): 0.8; Activity (HCT-116 [30]): 2.6%; Activity (Huh-7): 0.7%; Activity (HCT-116 [31]): Active; viability at 50 µM (HaCaT [32]): 20%; Activity (PC-3 [33]): Active; Activity (PC-3 [34]): Active; Activity_index (NCI-H727 [35]): 0.2
COc1cc(OC)c(C(=O)/C=C/c2ccc(F)cc2)c(OC)c1,Active,10.7,4%,Active,Active,78%,Active,4.2,0,>8.1,27%,10.7 µM,>6.5,Active,4.5%,Active,1.3,10%,39%,Active,Activity (MDA-MB-231 [21]): 43%; Activity (HCT-116 [22]): 23%; IC50 (MCF7 [23]): 7.7 µM; Activity (NCI-H727 [24]): 31%; IC50 (RL): 6.4 µM; Activity_index (MDA-MB-231 [25]): 4.8; Activity (MDA-MB-231 [26]): Active; Activity (MCF7 [27]): Active; Activity (HCT-116 [28]): Active; Activity_index (HCT-116 [29]): 0.4; Activity (HCT-116 [30]): 0.7%; Activity (Huh-7): 1.1%; Activity (HCT-116 [31]): Active; viability at 50 µM (HaCaT [32]): 21%; Activity (PC-3 [33]): Active; Activity (PC-3 [34]): Active; Activity_index (NCI-H727 [35]): 0.4
